Data taken from the supplement of paper PMC10307832.

Assays:
Assay in all cases: relative viability (nuclei count vs DMSO), 5 days (fraction); higher = more cells survive
Gemcitabine + OSI-027 = compound: Nc1ccn([C@@H]2O[C@H](CO)[C@@H](O)C2(F)F)c(=O)n1 [Gemcitabine] + COc1cccc2cc(-c3nc([C@H]4CC[C@H](C(=O)O)CC4)n4ncnc(N)c34)[nH]c12 [OSI-027] (partner 0.5 µM)
In short: (§1)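 Values are medians from duplicate plates. Each reflects relative viability, defined as the nuclei count of treated wells over that of vehicle wells. Lung cancer cell lines in 1536-well plates were pin-tool dosed one day after seeding with one drug alone or with a fixed anchor-drug dose plus five library-drug doses (not always all listed) in √10 steps, then fixed, stained and imaged at 4× after 5 days.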

Gemcitabine + Lapatinib = compound: Nc1ccn([C@@H]2O[C@H](CO)[C@@H](O)C2(F)F)c(=O)n1 [Gemcitabine] + CS(=O)(=O)CCNCc1ccc(-c2ccc3ncnc(Nc4ccc(OCc5cccc(F)c5)c(Cl)c4)c3c2)o1 [Lapatinib] (partner 2 µM)
In short: as §1

Gemcitabine + Linsitinib = compound: Nc1ccn([C@@H]2O[C@H](CO)[C@@H](O)C2(F)F)c(=O)n1 [Gemcitabine] + C[C@]1(O)C[C@@H](c2nc(-c3ccc4ccc(-c5ccccc5)nc4c3)c3c(N)nccn32)C1 [Linsitinib] (partner 1 µM)
In short: as §1

Gemcitabine + Alpelisib = compound: Nc1ccn([C@@H]2O[C@H](CO)[C@@H](O)C2(F)F)c(=O)n1 [Gemcitabine] + Cc1nc(NC(=O)N2CCC[C@H]2C(N)=O)sc1-c1ccnc(C(C)(C)C(F)(F)F)c1 [Alpelisib] (partner 2 µM)
In short: as §1

Cell Line	relative viability (Gemcitabine + OSI-027; first compound 0.001 µM)	relative viability (Gemcitabine + OSI-027; first compound 0.003162 µM)	relative viability (Gemcitabine + OSI-027; first compound 0.01 µM)	relative viability (Gemcitabine + OSI-027; first compound 0.03162 µM)	relative viability (Gemcitabine + OSI-027; first compound 0.1 µM)	relative viability (Gemcitabine + Lapatinib; first compound 0.001 µM)	relative viability (Gemcitabine + Lapatinib; first compound 0.003162 µM)	relative viability (Gemcitabine + Lapatinib; first compound 0.01 µM)	relative viability (Gemcitabine + Lapatinib; first compound 0.03162 µM)	relative viability (Gemcitabine + Lapatinib; first compound 0.1 µM)	relative viability (Gemcitabine + Linsitinib; first compound 0.001 µM)	relative viability (Gemcitabine + Linsitinib; first compound 0.003162 µM)	relative viability (Gemcitabine + Linsitinib; first compound 0.01 µM)	relative viability (Gemcitabine + Linsitinib; first compound 0.03162 µM)	relative viability (Gemcitabine + Linsitinib; first compound 0.1 µM)	relative viability (Gemcitabine + Alpelisib; first compound 0.001 µM)	relative viability (Gemcitabine + Alpelisib; first compound 0.003162 µM)	relative viability (Gemcitabine + Alpelisib; first compound 0.01 µM)	relative viability (Gemcitabine + Alpelisib; first compound 0.03162 µM)	relative viability (Gemcitabine + Alpelisib; first compound 0.1 µM)
NCI-H1666	0.87	0.821	0.752	0.5	0.479	0.617	0.708	0.512	0.265	0.239	0.789	0.882	0.435	0.286	0.285	0.863	0.92	0.364	0.232	0.279
NCI-H1734	0.506	0.343	0.166	0.121	0.111	0.985	0.97	0.421	0.165	0.0939	0.909	0.806	0.457	0.129	0.13	0.567	0.627	0.213	0.153	0.0967
NCI-H1755	0.789	0.715	0.57	0.34	0.272	0.962	1.04	0.959	0.35	0.265	0.957	1.06	0.975	0.347	0.259	0.897	0.919	0.768	0.25	0.215
NCI-H1792	0.639	0.486	0.285	0.227	0.154	0.948	0.806	0.239	0.107	0.0773	0.561	0.363	0.131	0.109	0.0721	0.774	0.483	0.182	0.101	0.07
NCI-H1793	0.236	0.286	0.205	0.159	0.116	1.07	0.734	0.489	0.244	0.166	1	0.857	0.539	0.16	0.135	0.706	0.594	0.354	0.156	0.147
NCI-H1915	0.714	0.63	0.545	0.479	0.241	0.938	0.877	0.949	0.925	0.597	1.12	1.09	1.11	0.92	0.442	1.02	1.11	1.04	0.711	0.308
NCI-H1944	0.453	0.437	0.385	0.188	0.149	0.848	0.847	0.804	0.45	0.24	1.24	1.15	1.17	0.509	0.259	0.855	0.845	0.783	0.366	0.14
NCI-H1975	0.867	0.839	0.327	0.148	0.125	0.983	1.1	0.725	0.245	0.179	1.1	1.04	0.586	0.218	0.191	0.795	0.792	0.314	0.18	0.157
